From patent US20210017607A1, “Methods of Predicting Responsiveness to Cancer Therapies” (The University of Chicago, priority 2019, published 2021)
Entries after “also recorded” stand apart in the source; their conditions may differ.

Experiments:
[1] = IC90 concentrations stated for in vitro/ex vivo drug treatments; settings: FIG. 50, Myc-CAP-PTEN^−/− tumor suspensions; read-out: IC90 concentration
[2] = test system: Myc-CAP-PTEN^−/− cells; experiment: Myc-CAP-PTEN−/− cells in vitro (western blotting, cytokine array); format: cell-based, mouse; settings: 1 μM, 24 hours
Protocol: FIGS. 35A-35D. […] (35A) Myc-CAP-PTEN^−/− cells were treated with copanlisib […] (IC90 concentration) in vitro for 24 hours, and protein extracts were harvested for western blotting analysis with the indicated antibodies to analyze PI3K activation. (35B) Supernatants from (35A) were harvested for cytokine array profiling. n=3 independent in vitro experiments. (35C) Mice bearing Myc-CAP-PTEN^−/− established syngeneic tumors (200 mm^3) were treated with copanlisib (14 mg/kg, every other day, until tumors reached 2000 mm^3). Tumor volumes were monitored daily and graphed. (35D) At the end of treatment, tumors were analyzed by flow cytometry for tumor infiltrating immune cell subsets. n=5 mice per group.
FIGS. 49A and 49B. PTEN-deficient cancer cells have diminished STING expression that can be restored by […] and pan-PI3K inhibitors. (49A) Isogenic MC38, Myc-CAP, ID8, and TRAMP cells (−/+ PTEN) were analyzed for STING mRNA and protein expression by qRT-PCR and western blotting, respectively. (49B) Myc-CAP-PTEN^−/− cells were treated with GSK′771 (PI3Kβ-selective inhibitor, 1 μM) or BKM120 (pan-PI3K inhibitor, 1 μM) for 24 hours, and proteins were analyzed for STING expression and PI3K activation by western blotting.
Cancer Cell Lines and in vitro drug treatments. Transgenic c-myc^hi prostate tumor derived cell line, Myc-CAP and TRAMPC1, ovarian cancer cell line ID8 and murine colon adenocarcinoma line MC38 were obtained from the American Type Culture Collection (ATCC) and passaged in either 1×RPMI/1×DMEM (with phenol) or 1×DMEM (without phenol red) containing 10% fetal bovine serum, 1% penicillin-streptomycin, 2% L-glutamine and 1×ITS. ID8^pten−/−p53−/−cells were a kind gift from Dr. Ian McNeish (Imperial College, London). For generation of STING over expressing cell lines −Myc-CAP^pten+/+ and ID8^pten−/− cells were transfected with commercial available plasmid (DC-Mm22462-SH02, Genecoepia™), sorted and expanded as per protocol. […]

[3] = test system: single cell suspensions derived from Myc-CAP (STING^lo) tumors; experiment: Ex vivo reconstitution assay, IFNβ ELISA; format: cell-based, mouse; settings: ex vivo
Protocol: FIGS. 15A-15E. Differential STING pathway activation within B6-Myc (STING^hi) cell lines and BMDMs relative to Myc-CAP (STING^lo) cells. (15A, 15B) The indicated cancer cell lines and BMDMs were treated with DMXAA (mouse STING agonist) for 1 and 24 hours, respectively, and protein extracts were interrogated for cGAS/STING pathway activation with the indicated antibodies by Western blotting. Supernatants were collected from for IFNβ1 ELISA following 36 hours of treatment with DMXAA (15C, 15D). (15E) Syngeneic Myc-CAP (STING^lo) tumors were processed into single cell suspensions and used for phycoerythrin-based sorting of CD45+ cellular fractions. Equal numbers of cells from these fractions were stimulated with DMXAA. Supernatants were collected at 36 hrs for detection of IFNB1 by ELISA; n=3 independent experiments; Significance/p-values were calculated by one-way Anova (for 15C & 15E) or paired t-test (for 15D); TAM=tumor associated macrophage; s.e.=short exposure; l.e.=long exposure.
FIGS. 29A-29M. PARPi alone induces DNA DSBs, but not apoptosis even in combination with PI3Ki in Myc-CAP (STING^lo) cancer cells; PARPi/PI3Ki combination induces intracellular DNA DSBs and proportionate release of MV surface-associated DNA DSBs from B6-Myc (STINGhi) cancer cells without affecting cellular viability; PARPi/PI3K treatment activates tumor-cell extrinsic cGAS/STING pathway within TAMs in vivo via MV surface-associated DNA DSBs released from tumor cells. Myc-CAP cancer cells were treated with the indicated drugs singly or in combination for 36 hours. (29A) Cells were stained with anti-mouse specific p-γH2AX antibody and a fluorescently labeled secondary antibody for determination of DNA DSBs, which were quantified by confocal microscopy. (29B) Protein extracts from cells in 29A were analyzed for the indicated pharmacodynamic biomarkers by western blotting; (29C) Annexin V-PI staining was done to assess frequency of live cells (Annexin V^− PI^−) following drug treatment. (29D) Ultracentrifugation was utilized to purify microvesicles (MVs) from supernatants in treatment groups in (29A) and associated DNA DSBs was quantified by Nanodrop®. Independent experiments n=2. (29E) Ultracentrifugation was utilized to purify MVs from supernatants in indicated treatment groups in FIG. 17A, and associated DNA DSBs were quantified by Nanodrop®; n=2 independent experiments. (29F) Syngeneic mice were engrafted with Myc-CAP (STING^lo) cells, and tumors were harvested when the tumor volume reached 400 mm^3. Single cell suspensions of the tumors were treated with the indicated drug(s), in the presence or absence of GW4869 (MV biogenesis inhibitor). (29G) Bone marrow derived macrophage (BMDMs) were co-cultured for 30 hours with supernatants (−/+ exogenous 50 units of DNase I pre-treatment for 30 minutes) from Myc-CAP cells that were treated with the indicated drug(s) for 36 hours. (29H) cGAMP (10 μg/mL) was pre-incubated with 10 units of DNAse I or mock control for 30 minutes and then added to BMDMs for 30 hours. (29I-29L) STING^+/+/STING^−/− BMDMs were co-cultured for 36 hours with supernatants from Myc-CAP and B6-Myc cancer cells that were treated with the indicated drug(s) for 36 hours. Supernatants were collected from 29F-29L at the end of treatment and analyzed for IFNβ1 by ELISA. […] Tumor volume was recorded daily for duration of experiment. […] Significance/p-values were calculated by one-way ANOVA. […]

[4] = test system: Myc-CAP (STING^lo) tumors; experiment: Myc-CAP syngeneic tumor growth; format: in vivo, mouse; settings: for effect of concomitant agent on anti-tumor response elicited by degarelix/rucaparib/buparlisib (ADT/PARPi/PI3Ki): syngeneic mice
Protocol: FIGS. 25A and 25B. […] (25A-25B) Myc-CAP (STING^lo) tumor-bearing syngeneic mice were treated with the indicated drug(s) until untreated tumors reached approx. 2500 mm^3. Tumor volume curves for duration of treatment are shown.
FIGS. 26A-26D. […] Immunodeficient athymic nude (26A) and NOD-SCID (26B) mice were engrafted with Myc-CAP (STING^lo) tumors and treated with the indicated drug(s) until untreated tumors reached approx. 2000 mm^3. Tumor volume curves for duration of treatment are shown. For 26A-26B, n=3-4 mice per group. (26C-26D) Single-cell suspensions were generated from harvested tumors and analyzed by flow cytometry for the indicated immune cell populations and their activation states. Data are represented relative to CD45+ immune cells. For 26C-26D, n=3-5 animals per treatment group from 2 independent experiments. Significance/p-values were calculated by […].
FIGS. 29A-29M. […] Myc-CAP cancer cells were treated with the indicated drugs singly or in combination for 36 hours. (29A) Cells were stained with anti-mouse specific p-γH2AX antibody and a fluorescently labeled secondary antibody for determination of DNA DSBs, which were quantified by confocal microscopy. (29B) Protein extracts from cells in 29A were analyzed for the indicated pharmacodynamic biomarkers by western blotting; (29C) Annexin V-PI staining was done to assess frequency of live cells (Annexin V^− PI^−) following drug treatment. (29D) Ultracentrifugation was utilized to purify microvesicles (MVs) from supernatants in treatment groups in (29A) and associated DNA DSBs was quantified by Nanodrop®. Independent experiments n=2. (29E) Ultracentrifugation was utilized to purify MVs from supernatants in indicated treatment groups in FIG. 17A, and associated DNA DSBs were quantified by Nanodrop®; n=2 independent experiments. (29F) Syngeneic mice were engrafted with Myc-CAP (STING^lo) cells, and tumors were harvested when the tumor volume reached 400 mm^3. Single cell suspensions of the tumors were treated with the indicated drug(s), in the presence or absence of GW4869 (MV biogenesis inhibitor). (29G) Bone marrow derived macrophage (BMDMs) were co-cultured for 30 hours with supernatants (−/+ exogenous 50 units of DNase I pre-treatment for 30 minutes) from Myc-CAP cells that were treated with the indicated drug(s) for 36 hours. (29H) cGAMP (10 μg/mL) was pre-incubated with 10 units of DNAse I or mock control for 30 minutes and then added to BMDMs for 30 hours. (29I-29L) STING^+/+/STING^−/− BMDMs were co-cultured for 36 hours with supernatants from Myc-CAP and B6-Myc cancer cells that were treated with the indicated drug(s) for 36 hours. Supernatants were collected from 29F-29L at the end of treatment and analyzed for IFNβ1 by ELISA. (29M) Myc-CAP (STING^lo) tumor-bearing mice were treated with the indicated drug(s) until tumors first reached approx. 2500 mm^3. For the degerelix/rucaparib/buparlisib combination, additional cohorts of mice underwent concomitant treatment with STING antagonist H-151 or GW4869. Tumor volume was recorded daily for duration of experiment. For in vitro experiments, n=2 independent experiments and for in vivo experiments n=3-4 animals /group.

[5] = test system: BMDMs; experiment: BMDM co-culture with supernatants from drug-treated cancer cells; format: cell-based, mouse; settings: cGAMP 10 μg/mL, 30 hours
Excerpt: FIGS. 29A-29M. PARPi alone induces DNA DSBs, but not apoptosis even in combination with PI3Ki in Myc-CAP (STING^lo) cancer cells; PARPi/PI3Ki combination induces intracellular DNA DSBs and proportionate release of MV surface-associated DNA DSBs from B6-Myc (STINGhi) cancer cells without affecting cellular viability; PARPi/PI3K treatment activates tumor-cell extrinsic cGAS/STING pathway within TAMs in vivo via MV surface-associated DNA DSBs released from tumor cells. Myc-CAP cancer cells were treated with the indicated drugs singly or in combination for 36 hours. (29A) Cells were stained with anti-mouse specific p-γH2AX antibody and a fluorescently labeled secondary antibody for determination of DNA DSBs, which were quantified by confocal microscopy. (29B) Protein extracts from cells in 29A were analyzed for the indicated pharmacodynamic biomarkers by western blotting; (29C) Annexin V-PI staining was done to assess frequency of live cells (Annexin V^− PI^−) following drug treatment. (29D) Ultracentrifugation was utilized to purify microvesicles (MVs) from supernatants in treatment groups in (29A) and associated DNA DSBs was quantified by Nanodrop®. Independent experiments n=2. (29E) Ultracentrifugation was utilized to purify MVs from supernatants in indicated treatment groups in FIG. 17A, and associated DNA DSBs were quantified by Nanodrop®; n=2 independent experiments. […]

SMILES | IC90 [1] [nM] | effect of concomitant agent on anti-tumor response elicited by degarelix/rucaparib/buparlisib (ADT/PARPi/PI3Ki) [4] | further results
C[C@H](NC(=O)c1c(N)nn2cccnc12)c1cc2cccc(C#Cc3cnn(C)c3)c2c(=O)n1-c1ccccc1 [IPI549] | 500 |  | 
Cc1c(Cn2c(C)nc3c(C(=O)O)cc(N4CCOCC4)cc32)cccc1C(F)(F)F [GSK771] | 500 |  | STING expression (western blotting) [2]: restored
O=C(/C=C/c1ccc(/C=C/C(=O)Nc2ccc(C3=NCCN3)cc2)cc1)Nc1ccc(C2=NCCN2)cc1 [GW4869] |  | abrogated the anti-tumor response; also recorded: significant abrogation | effect of concomitant agent on IFNβ / Type I IFN production following rucaparib/buparlisib (PARPi/PI3Ki) [3]: abolished the IFNβ production; also recorded: Significant down-regulation of Type I IFN production
Nc1nc2c(ncn2[C@@H]2O[C@@H]3COP(=O)(O)O[C@H]4[C@@H](O)[C@H](n5cnc6c(N)ncnc65)O[C@@H]4COP(=O)(O)O[C@@H]2[C@@H]3O)c(=O)[nH]1 [cGAMP, cyclic guanosine monophosphate-adenosine monophosphate] |  |  | Type I IFN production within BMDMs after DNase I pre-treatment of the agent [5]: did not abrogate the Type I IFN production
CCc1ccc(NC(=O)Nc2c[nH]c3ccccc23)cc1 [H-151] |  | abrogated the anti-tumor response | effect of concomitant agent on anti-tumor response elicited by PARPi/PI3Ki ([4]; c-myc driven murine PC models, immunocompetent mice): abrogated
